The data set relates to wild type B. pumilus. Description: Activity of resting cell in aqueous organic two-phase system (biotransformation of FA to VG). As to conditions: two-phase bioconversion, B. pumilus whole cells.

Protocol: The cells were resuspended in 1 ml of 0.1 M phosphate buffer to a concentration (OD600=5) and mixed with an equal volume of organic solvent in flasks. Biotransformation was started at an initial FA concentration of 36 mM. The experiments were performed under the same conditions as in the mono-phase biotransformation process (Example 1).

For `CCO` [Ethanol], the “Toxicity of solvent to the cells” value is “toxic to the cells”.
Consider `CCOC(C)=O` [Ethyl acetate], for which the “Toxicity of solvent to the cells” value is reported as “toxic to the cells”.

These data come from patent US20070224668A1, “Process for producing 4-vinylguaiacol by biodecaroxylation of ferulic acid” (priority 2006, published 2007).
